Converted amounts (≈) assume the structure as drawn.
Columns and labels:
Candida albicans [1] = test: Antifungal activity against Candida albicans CPCC400616 measured after 24 hrs by micro-broth dilution assay; assay type: functional
Candida albicans [2] = test: Antifungal activity against Candida albicans ATCC SC5314 measured after 24 hrs by micro-broth dilution assay; assay type: functional
[Candida] zeylanoides = Antifungal activity against Candida zeylanoides CMGCC2.3739 measured after 24 hrs by micro-broth dilution assay; assay type: functional; conditions: Dujonia zeylanoides
Cryptococcus neoformans = test: Antifungal activity against Cryptococcus neoformans CGMCC2.3161 measured after 72 hrs by micro-broth dilution assay; assay type: functional
Pichia kudriavzevii = test: Antifungal activity against Candida krusei AS 2.1045 measured after 24 hrs by micro-broth dilution assay; assay type: functional
Nakaseomyces glabratus = test: Antifungal activity against clinical isolate Candida glabrata measured after 24 hrs by micro-broth dilution assay; assay type: functional
Candida parapsilosis = test: Antifungal activity against Candida parapsilosis ATCC 22019 measured after 24 hrs by micro-broth dilution assay; assay type: functional; conditions: Lodderomyces parapsilosis
Aspergillus fumigatus = test: Antifungal activity against Aspergillus fumigatus CGMCC 3.7795 measured after 72 hrs by micro-broth dilution assay; assay type: functional
Candida albicans [3] = test: Antifungal activity against fluconazole-resistant Candida albicans CaR measured after 24 hrs by micro-broth dilution assay; assay type: functional
Candida albicans [4] = test: Antifungal activity against fluconazole-resistant Candida albicans 17 measured after 24 hrs by micro-broth dilution assay; assay type: functional
Candida albicans [5] = test: Antifungal activity against fluconazole-resistant Candida albicans 632 measured after 24 hrs by micro-broth dilution assay; assay type: functional
Candida albicans [6] = test: Antifungal activity against Candida albicans 901 measured after 24 hrs by micro-broth dilution assay; assay type: functional
Candida albicans [7] = test: Antifungal activity against fluconazole-resistant Candida albicans strain 904 measured after 24 hrs by micro-broth dilution assay; assay type: functional
Candida albicans [8] = test: Fungicidal activity against Candida albicans CPCC400616 measured after 48 hrs; assay type: functional
[9] = Ratio of MFC for fungicidal activity against Candida albicans CPCC400616 to MIC for Antifungal activity against Candida albicans CPCC400616; assay type: functional; conditions: time 24 hrs
[10] = Ratio of hemolysis activity in rabbit RBC to MIC for Candida albicans; assay type: toxicity; conditions: rabbit red blood cells (RBC)

Row | Structure (SMILES) | MIC (Candida albicans [1]) [µg/mL] | MIC (Candida albicans [2]) [µg/mL] | MIC ([Candida] zeylanoides) [µg/mL] | MIC (Cryptococcus neoformans) [µg/mL] | MIC (Pichia kudriavzevii) [µg/mL] | MIC (Nakaseomyces glabratus) [µg/mL] | MIC (Candida parapsilosis) [µg/mL] | MIC (Aspergillus fumigatus) [µg/mL] | MIC (Candida albicans [3]) [µg/mL] | MIC (Candida albicans [4]) [µg/mL] | MIC (Candida albicans [5]) [µg/mL] | MIC (Candida albicans [6]) [µg/mL] | MIC (Candida albicans [7]) [µg/mL] | MIC (Candida albicans [8]) [µg/mL] | MFC/MIC ratio [9] | selectivity ratio [10]
1 | Fc1ccc(C(Cn2ccnc2)[Se]Cc2ccccc2)c(F)c1 (stereo not drawn) | 0.25 (≈ 0.663 µM) | 0.13 (≈ 0.345 µM) | 0.5 (≈ 1.33 µM) | 0.5 (≈ 1.33 µM) | 0.25 (≈ 0.663 µM) | 1 (≈ 2.65 µM) | 0.13 (≈ 0.345 µM) | 1 (≈ 2.65 µM) | 4 (≈ 10.6 µM) | 8 (≈ 21.2 µM) | 4 (≈ 10.6 µM) | 2 (≈ 5.3 µM) | 64 (≈ 170 µM) | – | – | –
2 | Clc1ccc(C(Cn2ccnc2)[Se]Cc2ccccc2Br)c(Cl)c1 (stereo not drawn) | 0.02 (≈ 0.0409 µM) | 0.01 (≈ 0.0204 µM) | 0.25 (≈ 0.511 µM) | 0.5 (≈ 1.02 µM) | 0.25 (≈ 0.511 µM) | 0.5 (≈ 1.02 µM) | 0.03 (≈ 0.0613 µM) | 1 (≈ 2.04 µM) | 0.5 (≈ 1.02 µM) | 0.5 (≈ 1.02 µM) | 1 (≈ 2.04 µM) | 1 (≈ 2.04 µM) | 0.25 (≈ 0.511 µM) | 0.25 (≈ 0.511 µM) | 16 | –
3 | Cc1cccc(C[Se]C(Cn2ccnc2)c2ccc(Cl)cc2Cl)c1 (stereo not drawn) | 0.03 (≈ 0.0707 µM) | 0.03 (≈ 0.0707 µM) | 16 (≈ 37.7 µM) | 0.25 (≈ 0.589 µM) | 4 (≈ 9.43 µM) | 0.5 (≈ 1.18 µM) | 1 (≈ 2.36 µM) | 8 (≈ 18.9 µM) | 4 (≈ 9.43 µM) | 4 (≈ 9.43 µM) | 2 (≈ 4.71 µM) | 2 (≈ 4.71 µM) | 2 (≈ 4.71 µM) | – | – | –
4 | Fc1ccc(C(Cn2ccnc2)[Se]Cc2ccc(Cl)cc2Cl)c(F)c1 (stereo not drawn) | 0.03 (≈ 0.0672 µM) | 0.13 (≈ 0.291 µM) | 0.5 (≈ 1.12 µM) | 0.25 (≈ 0.56 µM) | 0.06 (≈ 0.134 µM) | 1 (≈ 2.24 µM) | 0.03 (≈ 0.0672 µM) | 0.5 (≈ 1.12 µM) | 16 (≈ 35.9 µM) | 1 (≈ 2.24 µM) | 2 (≈ 4.48 µM) | 0.5 (≈ 1.12 µM) | 2 (≈ 4.48 µM) | 0.125 (≈ 0.28 µM) | 4 | 64
5 | Fc1ccc(C(Cn2ccnc2)[Se]Cc2ccc(Br)cc2)c(F)c1 (stereo not drawn) | 0.25 (≈ 0.548 µM) | 0.13 (≈ 0.285 µM) | 0.25 (≈ 0.548 µM) | 0.5 (≈ 1.1 µM) | 1 (≈ 2.19 µM) | 2 (≈ 4.38 µM) | 0.25 (≈ 0.548 µM) | 1 (≈ 2.19 µM) | 64 (≈ 140 µM) | 2 (≈ 4.38 µM) | 8 (≈ 17.5 µM) | 2 (≈ 4.38 µM) | 2 (≈ 4.38 µM) | – | – | –
6 | Fc1ccc(C[Se]C(Cn2ccnc2)c2ccc(F)cc2F)cc1 (stereo not drawn) | 0.06 (≈ 0.152 µM) | 0.03 (≈ 0.0759 µM) | 1 (≈ 2.53 µM) | 0.5 (≈ 1.26 µM) | 1 (≈ 2.53 µM) | 1 (≈ 2.53 µM) | 0.25 (≈ 0.632 µM) | 2 (≈ 5.06 µM) | 8 (≈ 20.2 µM) | 32 (≈ 81 µM) | 32 (≈ 81 µM) | 4 (≈ 10.1 µM) | 8 (≈ 20.2 µM) | – | – | –
7 | Fc1ccc(C(Cn2ccnc2)[Se]Cc2ccccc2Cl)c(F)c1 (stereo not drawn) | 0.25 (≈ 0.607 µM) | 0.01 (≈ 0.0243 µM) | 0.25 (≈ 0.607 µM) | 0.5 (≈ 1.21 µM) | 0.25 (≈ 0.607 µM) | 1 (≈ 2.43 µM) | 0.06 (≈ 0.146 µM) | 2 (≈ 4.86 µM) | 2 (≈ 4.86 µM) | 1 (≈ 2.43 µM) | 0.5 (≈ 1.21 µM) | 1 (≈ 2.43 µM) | 0.5 (≈ 1.21 µM) | – | – | –
8 | Clc1ccc(C(Cn2ccnc2)[Se]Cc2ccccc2)c(Cl)c1 (stereo not drawn) | 0.06 (≈ 0.146 µM) | 0.02 (≈ 0.0488 µM) | 0.5 (≈ 1.22 µM) | 0.5 (≈ 1.22 µM) | 0.5 (≈ 1.22 µM) | 0.5 (≈ 1.22 µM) | 0.25 (≈ 0.609 µM) | 0.5 (≈ 1.22 µM) | 4 (≈ 9.75 µM) | 4 (≈ 9.75 µM) | 2 (≈ 4.88 µM) | 1 (≈ 2.44 µM) | 0.5 (≈ 1.22 µM) | – | – | –
9 | Clc1ccc(C[Se]C(Cn2ccnc2)c2ccc(Cl)cc2Cl)cc1 (stereo not drawn) | 0.06 (≈ 0.135 µM) | 0.03 (≈ 0.0675 µM) | 8 (≈ 18 µM) | 0.25 (≈ 0.562 µM) | 0.5 (≈ 1.12 µM) | 1 (≈ 2.25 µM) | 0.5 (≈ 1.12 µM) | 2 (≈ 4.5 µM) | 16 (≈ 36 µM) | 8 (≈ 18 µM) | 64 (≈ 144 µM) | 8 (≈ 18 µM) | > 128 | – | – | –
10 | COc1ccc(C[Se]C(Cn2ccnc2)c2ccc(Cl)cc2Cl)cc1 (stereo not drawn) | 0.13 (≈ 0.295 µM) | 0.13 (≈ 0.295 µM) | 8 (≈ 18.2 µM) | 0.25 (≈ 0.568 µM) | 8 (≈ 18.2 µM) | 0.5 (≈ 1.14 µM) | 0.5 (≈ 1.14 µM) | 1 (≈ 2.27 µM) | 32 (≈ 72.7 µM) | 16 (≈ 36.3 µM) | 128 (≈ 291 µM) | 16 (≈ 36.3 µM) | 128 (≈ 291 µM) | – | – | –
11 | Fc1ccc(C[Se]C(Cn2ccnc2)c2ccc(Cl)cc2Cl)cc1 (stereo not drawn) | 0.03 (≈ 0.0701 µM) | 0.03 (≈ 0.0701 µM) | 4 (≈ 9.34 µM) | 0.25 (≈ 0.584 µM) | 1 (≈ 2.34 µM) | 0.13 (≈ 0.304 µM) | 0.5 (≈ 1.17 µM) | 2 (≈ 4.67 µM) | 16 (≈ 37.4 µM) | 4 (≈ 9.34 µM) | 128 (≈ 299 µM) | 32 (≈ 74.7 µM) | 64 (≈ 149 µM) | – | – | –
12 | Clc1ccc(C[Se]C(Cn2ccnc2)c2ccc(Cl)cc2Cl)c(Cl)c1 (stereo not drawn) | 0.06 (≈ 0.125 µM) | 0.06 (≈ 0.125 µM) | 2 (≈ 4.17 µM) | 0.5 (≈ 1.04 µM) | 2 (≈ 4.17 µM) | 0.25 (≈ 0.522 µM) | 2 (≈ 4.17 µM) | 0.5 (≈ 1.04 µM) | 128 (≈ 267 µM) | 16 (≈ 33.4 µM) | 64 (≈ 134 µM) | 32 (≈ 66.8 µM) | 8 (≈ 16.7 µM) | – | – | –
13 | Fc1cccc(C[Se]C(Cn2ccnc2)c2ccc(F)cc2F)c1 (stereo not drawn) | 0.03 (≈ 0.0759 µM) | 0.03 (≈ 0.0759 µM) | 1 (≈ 2.53 µM) | 0.5 (≈ 1.26 µM) | 0.13 (≈ 0.329 µM) | 0.5 (≈ 1.26 µM) | 0.25 (≈ 0.632 µM) | 2 (≈ 5.06 µM) | 4 (≈ 10.1 µM) | 0.06 (≈ 0.152 µM) | 8 (≈ 20.2 µM) | 8 (≈ 20.2 µM) | 1 (≈ 2.53 µM) | > 128 | – | –
14 | COc1cc(C[Se]C(Cn2ccnc2)c2ccc(F)cc2F)cc(OC)c1 (stereo not drawn) | 0.5 (≈ 1.14 µM) | 0.13 (≈ 0.297 µM) | 1 (≈ 2.29 µM) | 8 (≈ 18.3 µM) | 8 (≈ 18.3 µM) | 0.5 (≈ 1.14 µM) | 8 (≈ 18.3 µM) | 8 (≈ 18.3 µM) | 128 (≈ 293 µM) | 8 (≈ 18.3 µM) | 8 (≈ 18.3 µM) | 2 (≈ 4.57 µM) | 4 (≈ 9.15 µM) | – | – | –
15 | Fc1ccc(C(Cn2ccnc2)[Se]Cc2ccccc2Br)c(F)c1 (stereo not drawn) | 0.02 (≈ 0.0438 µM) | 0.01 (≈ 0.0219 µM) | 0.25 (≈ 0.548 µM) | 0.25 (≈ 0.548 µM) | 0.06 (≈ 0.132 µM) | 1 (≈ 2.19 µM) | 0.02 (≈ 0.0438 µM) | 1 (≈ 2.19 µM) | 0.13 (≈ 0.285 µM) | 0.06 (≈ 0.132 µM) | 0.25 (≈ 0.548 µM) | 0.25 (≈ 0.548 µM) | 0.06 (≈ 0.132 µM) | 0.125 (≈ 0.274 µM) | 8 | 512
16 | Clc1ccc(C(Cn2ccnc2)[Se]Cc2ccc(Br)cc2)c(Cl)c1 (stereo not drawn) | 0.25 (≈ 0.511 µM) | 0.06 (≈ 0.123 µM) | 2 (≈ 4.09 µM) | 0.5 (≈ 1.02 µM) | 32 (≈ 65.4 µM) | 0.5 (≈ 1.02 µM) | 4 (≈ 8.18 µM) | 1 (≈ 2.04 µM) | 128 (≈ 262 µM) | 8 (≈ 16.4 µM) | > 128 | 64 (≈ 131 µM) | 128 (≈ 262 µM) | – | – | –
17 | Cc1cccc(C[Se]C(Cn2ccnc2)c2ccc(F)cc2F)c1 (stereo not drawn) | 0.13 (≈ 0.332 µM) | 0.06 (≈ 0.153 µM) | 1 (≈ 2.56 µM) | 0.5 (≈ 1.28 µM) | 1 (≈ 2.56 µM) | 1 (≈ 2.56 µM) | 0.25 (≈ 0.639 µM) | 2 (≈ 5.11 µM) | 2 (≈ 5.11 µM) | 8 (≈ 20.4 µM) | 16 (≈ 40.9 µM) | 4 (≈ 10.2 µM) | 1 (≈ 2.56 µM) | – | – | –
18 | Cc1ccc(C[Se]C(Cn2ccnc2)c2ccc(F)cc2F)cc1C (stereo not drawn) | 0.5 (≈ 1.23 µM) | 0.13 (≈ 0.321 µM) | 1 (≈ 2.47 µM) | 0.5 (≈ 1.23 µM) | 8 (≈ 19.7 µM) | 1 (≈ 2.47 µM) | 1 (≈ 2.47 µM) | 2 (≈ 4.93 µM) | 128 (≈ 316 µM) | 64 (≈ 158 µM) | > 128 | 128 (≈ 316 µM) | > 128 | – | – | –

Reference: ChEMBL document CHEMBL4765323, “Design, synthesis, and biological evaluation of novel miconazole analogues containing selenium as potent antifungal agents” (Eur J Med Chem, 2020)
